{
  "source": "patent US20250325691A1",
  "about": "“HER2-GST-SN-38 COMPLEX, AND PHARMACEUTICAL COMPOSITION COMPRISING SAME FOR PREVENTING OR TREATING PROLIFERATIVE DISEASES” (priority 2022, published 2025)",
  "origin": "cited, not measured here",
  "test_system": "various cancer cells",
  "details": "various cancer cells in vitro; cited from earlier work",
  "data": [
    {"molecule": "CCc1c2c(nc3ccc(O)cc13)-c1cc3c(c(=O)n1C2)COC(=O)[C@]3(O)CC", "note": "[SN-38, 7-ethyl-10-hydroxycamptothecin]", "values": [
      {"measurement": "cytotoxic activity, times more potent than irinotecan", "value": "up to 1,000 times"}
    ]}
  ]
}
